Experimental data from the supplement of paper PMC10307832.

Tests used:
Assay in all cases: relative viability (nuclei count vs DMSO), 5 days (fraction); higher = more cells survive
[1] = compound: C1CC2=C(C1)C=C(C=C2)OC3=NC(=C4C(=N3)N(C=N4)CC5=CC=C(C=C5)C6=CC=CC=C6)N[C@@H](CC7=CC=CC=C7)CO [QS11] + CC(=O)c1c(C)c2cnc(Nc3ccc(N4CCNCC4)cn3)nc2n(C2CCCC2)c1=O [Palbociclib] (partner 0.5 µM)
Outline: (§1)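 After 5 days of treatment, lung cancer cells in 1536-well plates were fixed and stained in a single step (final 0.05% Triton X-100, 1% formaldehyde, 1 ug/ml Hoechst) and their nuclei counted on 4× images. Treatment had been applied by pin tool the day after seeding as one drug alone or as a fixed anchor-drug dose with five library-drug doses (not always all listed) in √10 steps. Relative viability is the nuclei count of treated wells divided by that of vehicle wells, and values are medians of duplicate plates.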

[2] = compound: CC1=C(C=C(C=C1)NC(=O)C2=CC(=CC=C2)C(C)(C)C#N)NC3=CC4=C(C=C3)N=CN(C4=O)C [AZ628] + N=C(N)NC(=N)NCCc1ccccc1 [Phenformin] (partner 250 µM)
Outline: as §1

[3] = compound: CC1=C(C=C(C=C1)NC(=O)C2=CC(=CC=C2)C(C)(C)C#N)NC3=CC4=C(C=C3)N=CN(C4=O)C [AZ628] + O=C(c1cc(Cc2n[nH]c(=O)c3ccccc23)ccc1F)N1CCN(C(=O)C2CC2)CC1 [Olaparib] (partner 8 µM)
Outline: as §1

[4] = compound: C[As](C)SC[C@H](NC(=O)CC[C@H](N)C(=O)O)C(=O)NCC(=O)O [Darinaparsin] + N=C(N)NC(=N)NCCc1ccccc1 [Phenformin] (partner 250 µM)
Outline: as §1

| Cell Line | relative viability ([1]; first compound 0.08 µM) | relative viability ([1]; first compound 0.253 µM) | relative viability ([1]; first compound 0.8 µM) | relative viability ([1]; first compound 2.53 µM) | relative viability ([1]; first compound 8 µM) | relative viability ([2]; first compound 0.08 µM) | relative viability ([2]; first compound 0.253 µM) | relative viability ([2]; first compound 0.8 µM) | relative viability ([2]; first compound 2.53 µM) | relative viability ([2]; first compound 8 µM) | relative viability ([3]; first compound 0.08 µM) | relative viability ([3]; first compound 0.253 µM) | relative viability ([3]; first compound 0.8 µM) | relative viability ([3]; first compound 2.53 µM) | relative viability ([3]; first compound 8 µM) | relative viability ([4]; first compound 0.08 µM) | relative viability ([4]; first compound 0.8 µM) | relative viability ([4]; first compound 2.53 µM) | relative viability ([4]; first compound 8 µM) |
| --- | --- | --- | --- | --- | --- | --- | --- | --- | --- | --- | --- | --- | --- | --- | --- | --- | --- | --- | --- |
| NCI-H1975 | 0.555 | 0.531 | 0.58 | 0.74 | 0.733 | 0.421 | 0.388 | 0.403 | 0.384 | 0.215 | 0.613 | 0.674 | 0.616 | 0.749 | 0.392 | 0.448 | 0.43 | 0.413 | 0.427 |
| NCI-H1395 | 0.596 | 0.654 | 0.628 | 0.664 | 0.666 | 0.478 | 0.39 | 0.423 | 0.436 | 0.422 | 0.478 | 0.458 | 0.443 | 0.461 | 0.447 | 0.457 | 0.471 | 0.409 | 0.459 |
| SW 1573 | 0.388 | 0.35 | 0.339 | 0.223 | 0.161 | 0.322 | 0.308 | 0.215 | 0.288 | 0.2 | 0.462 | 0.423 | 0.365 | 0.374 | 0.346 | 0.438 | 0.359 | 0.378 | 0.37 |
| NCI-H1792 | 0.679 | 0.886 | 0.491 | 0.667 | 0.741 | 0.309 | 0.258 | 0.225 | 0.158 | 0.115 | 0.508 | 0.332 | 0.382 | 0.293 | 0.26 | 0.334 | 0.258 |  | 0.205 |
| NCI-H441 | 0.213 | 0.244 | 0.255 | 0.201 | 0.227 | 0.991 | 0.71 | 0.822 | 0.712 | 0.469 | 0.547 | 0.532 | 0.738 | 0.699 | 0.542 | 1.13 | 0.821 | 0.597 | 0.88 |
| HCC-366 | 0.433 | 0.454 |  | 0.162 | 0.0973 | 0.585 | 0.572 | 0.554 | 0.598 | 0.499 | 0.358 | 0.31 | 0.263 | 0.271 | 0.192 | 0.65 | 0.649 | 0.588 | 0.665 |
| NCI-H1915 | 0.53 | 0.644 |  | 0.5 | 0.486 | 0.404 | 0.388 | 0.374 | 0.351 | 0.233 | 0.256 | 0.229 | 0.232 | 0.26 | 0.168 | 0.404 | 0.373 | 0.359 | 0.375 |
